As usually defined, the IC50 is the midpoint of a concentration-inhibition curve. Usually Ki stands for the dissociation constant of the complex between target and ligand, obtained from inhibition or displacement. Broadly, the inhibition is the percentage by which the read-out fell short of the control. A lower inhibition goes with little suppression.

In experiment [1] the test system is bradykinin-induced contraction of the guinea-pig ileum. Kind of experiment: antagonist action on the bradykinin-induced contraction of the guinea-pig ileum. Type of experiment: cell-based. The settings on record: Cavia porcellus, 10 min; isolated guinea-pig ileum, bradykinin 4×10^-8 mol/l, time of action 10 min, 37° C. As to the method:
The determinations of the antagonist action on the bradykinin-induced contraction of the guinea-pig ileum were carried out according to the following protocol:
Guinea-pigs weighing about 300 g (Morioth strain,--) are killed by a blow to the neck and exsanguinated. The ileum is dissected out in a length of about 20 cm, rinsed with Tyrode solution (Record syringe) and thus freed of intestinal contents. It is then divided into sections 1.5 cm long. These are fixed in organ baths of capacity 10 ml, which are filled with Tyrode solution, and connected to extension-measuring strips (isometric contraction measurement). The preload is 1 g. The Tyrode solution is warmed to 37° C. in a water bath and bubbled through with compressed air. After an interval of 30 min. the experiment is begun. After recording the biological zero line, bradykinin at a final concentration of 4×10^-8 mol/l per organ bath is added and the […] is recorded. The organ bath is then rinsed for 3 min with Tyrode solution and, after a break of 20 min., bradykinin is added again. The maximum of the contraction is achieved (control). Rinse again, break. The bradykinin antagonist is then added (time of action 10 min). Bradykinin is then added again and the ensuing contraction is compared with that of the control. The experiment is recorded on a pen recorder. […]
______________________________________ […]

The target of another experiment is T1, bradykinin B2 receptor (Cavia porcellus, UniProt O70526).
T1 construct: The guinea-pig ilea are roughly freed of the intestinal contents by careful stripping; from tissue; host or cells: guinea-pig ileum, membrane preparation
T1 sequence (O70526 1-372): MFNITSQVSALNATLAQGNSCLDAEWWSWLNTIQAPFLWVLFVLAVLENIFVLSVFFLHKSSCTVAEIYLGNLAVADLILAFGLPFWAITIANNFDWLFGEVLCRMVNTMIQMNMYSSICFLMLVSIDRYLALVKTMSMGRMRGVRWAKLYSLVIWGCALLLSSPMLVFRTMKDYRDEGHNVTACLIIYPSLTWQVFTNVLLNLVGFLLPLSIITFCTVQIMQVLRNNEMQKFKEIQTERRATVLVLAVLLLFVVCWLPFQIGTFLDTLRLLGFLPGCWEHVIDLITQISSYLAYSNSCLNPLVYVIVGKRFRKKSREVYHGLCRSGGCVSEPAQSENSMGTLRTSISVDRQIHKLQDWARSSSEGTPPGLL
The experiment can be described thus: binding to the bradykinin B2 receptor of the guinea-pig ileum (3H-bradykinin competition). The settings on record: 3H-bradykinin 0.25 to 0.3 nmol/l, guinea-pig ileum membranes; for Ki: LIGAND program; for IC50: room temperature, 60 minutes. As for the experimental part:
The measurement of the binding to the bradykinin B2 receptor of the guinea-pig ileum is described in the following (R. B. Innis et al., Proc. Natl. Acad. Sci. USA; 17 (1981) 2630): […]
25 mM TES (SIGMA, Order No: T-4152)
1 mM 1,10-phenanthroline (SIGMA; Order No: P-9375)
25 mM TES (SIGMA; Order No.: T-4152)
1 mM 1,10-phenanthroline (SIGMA; Order No.: P-9375)
0,1% albumin, bovine (SIGMA; Order No.: A-7906)
140 mg/ml bacitracin (SIGMA; Order No.: B-0125)
1 mM dithiothreitol (SIGMA; Order No.: D-0632)
1 mM captopril® 1-[(2S)-3-mercapto-2-methylpropionyl]-L-proline
Both buffers are adjusted to pH 6.8 using 5 molar NaOH.
The guinea-pig ilea are roughly freed of the intestinal contents by careful stripping and cleaned in 0.9% strength NaCl solution. The pieces of ilea, which are about 2 cm long, are transferred to ice-cold TES buffer (about 1 g/10 ml) and homogenized in an ice-bath for 30 sec. using an Ultraturrax. The homogenate is then filtered through 3 layers of gauze and the filtrate is centrifuged at 50,000 g for 10 minutes. The supernatant is discarded, and the pellet is rehomogenized in the same volume of TES buffer and centrifuged again at 50,000 g for 10 minutes. The pellet is rehomogenized in incubation buffer (about 1 g/5 ml) and frozen at -70° C. in cryotubes, divided into 2 ml portions.
The protein concentration of the ready-to-use membrane suspension is determined according to LOWRY and should be about 15 mg/100 ml.
All incubations are carried out at room temperature for 60 minutes on microtiter plates (96×300 ml) in 200 ml volumes. All mixtures in incubation buffer. To this end, 50 ml of the radioligand, 50 ml of the preparation to be tested and 100 ml of the membrane suspension are pipetted successively into the depressions of the microtiter plate. […]
a) Saturation Experiments (hot saturation)
Preparation of the ^3 H-bradykinin solution: For the saturation experiments, the concentrations 0.05, 0.1, 0.2, 0.4, 0.6, 0.8, 1.0, 1.5, 2.0, 2.5 and 3.0 nmol/l are employed, which correspond to 0.05 to 3.0 pmol/ml. After the preparation of the corresponding dilutions, 50 ml each per sample are initially introduced.
Nonspecific binding: For each concentration of the radioactive ligand, the nonspecific binding must be determined. This can be achieved by addition of a high concentration (1-100 mmol) of the unlabeled ligand, other antagonists or agonists of the bradykinin receptor. […] For this, 1.862 mg are dissolved in 1 ml of dimethyl sulfoxide (DMSO), diluted 1:25 with incubation buffer and 50 ml of this solution are added to the samples in the microtiter plates. The reaction is started by the addition of […] of the membrane suspension. […]
b) Competition Experiments (IC50)
Here a fixed quantity of the radioactive ligand (0.25 to 0.3 nmol/l of ^3 H-bradykinin) and various concentrations of the unlabeled agonists or antagonists are employed. 50 ml of the preparations or standards to be tested in the concentrations 10^-5 to 10^-10 mol/l are added to in each case 50 ml of the ^3 H-bradykinin solution and the reaction is started by addition of […] of membrane suspension. In this test too, triplicate determinations are carried out and three samples are incubated with […] of HOE 140 to determine the nonspecific binding.
The preparations to be tested for competition are always dissolved at a concentration of 1 mmol/l in dimethyl sulfoxide (DMSO), and then further diluted with DMSO. This solution is then diluted 1:25 with incubation buffer.
After incubation, the samples are filtered off in a Skatron cell harvester through a Whatmann GF/B filter previously moistened with 0.1% PEI (polyethylenimine) and washed with 10 ml of ice-cold TES buffer per sample. The still moist filters are punched out into mini-scintillation tubes and the tubes are filled with 3 ml of scintillator. After about 12 hours soaking time, the samples are briefly shaken and measured in a beta counter. […]

In experiment [2] the test system is bradykinin contraction of the isolated rabbit jugular vein. The experiment can be described thus: in-vitro duration of action on the isolated rabbit jugular (bradykinin-induced contraction). The format is cell-based, rabbit (white New Zealand). The settings on record: for inhibition at 10 µM: Oryctolagus cuniculus, 0.25 h, time 15 min, test substance (10^-5 M) present in bath, bradykinin 10^-7 M; for inhibition at 10 µM / Inhibition of the bradykinin contraction in %: mean, n=6; for inhibition after 4 h (in words): test substance 10^-5 M; for Inhibition of the bradykinin contraction in %: after rinsing (test substance 10^-5 M no longer in bath). As to the method:
The compounds of Examples 1, X and Y were compared. Examples X and Y are described in EP-A 622 361.
Comparison of the in-vitro duration of action of heterocyclic bradykinin antagonists on the isolated rabbit jugular
Male rabbits (white New Zealand, breeder: Mollegaard, Denmark, 2.5-3.0 kg) are killed by injection of an overdose of Pentobarbital-Na (1 ml of Narcoren®+0.5 ml of heparin). The two jugular veins are exposed, cut spirally and pieces of about 1.5 cm length are suspended in buffered organ baths (Krebs-Henseleit buffer) at a pretension of 0.5 g.
After a rest period of 30 min, contractions are induced by addition of bradykinin (10^-7 M), which serve as the starting value. Test substances are then added at a concentration of 10^-5 M. The inhibitory values shown are mean values (n=6). […] The bradykinin contraction is then ended by rinsing with just buffer solution.
At each further time shown, stimulation was again carried out with bradykinin (in the absence of the test substance in the bath fluid) and at the end of the contraction the bath fluid was replaced by just buffer solution.

Turning to `Cc1ccc2c(C)ccc(OCc3c(Cl)ccc(N(C)C(=O)CNC(=O)/C=C/c4ccc(C(F)(F)F)cc4)c3Cl)c2n1` [Example 2], the IC50 in experiment [1] is 1500 nM. Moreover, on bradykinin B2 receptor, the affinity, expressed as Ki, was 4 nM and the IC50 was determined as 40 nM.

`Cc1ccc(/C=C/C(=O)NCC(=O)N(C)c2ccc(Cl)c(COc3cccc4ccc(C)nc34)c2Cl)cc1` [Example X] returned an inhibition at 10 µM in experiment [2] of 97%. Moreover, the “inhibition after 4 h (in words)” value in experiment [2] is reported as “no longer show any inhibition”. The “Inhibition of the bradykinin contraction in %” value (from here on “Inhibition … in %”) in experiment [2] (time 120 min) worked out at 95%; in experiment [2] (time 150 min) it was 87%; in experiment [2] (time 180 min), 74%; in experiment [2] (time 210 min), 58%; in experiment [2] (time 240 min), 30%.

In the case of `Cc1ccc2cccc(OCc3c(Cl)ccc(N(C)C(=O)CNC(=O)/C=C/c4ccc(C(F)(F)F)cc4)c3Cl)c2n1` [Example 1, 8-[3-(N-(4-trans-Trifluoromethylcinnamoylglycyl)-N-methylamino)-2,6-dichlorobenzyloxy]-2-methylquinoline], the results for the IC50 (in experiment [1]; at bradykinin B2 receptor) were 44 nM and 9 nM, respectively. Further, on bradykinin B2 receptor, the Ki came out at 1 nM. The compound also displayed an inhibition at 10 µM in experiment [2] of 98%. In addition, in experiment [2] (isolated rabbit jugular, compared with Examples Y and X), the “in-vitro duration of action (in words)” value is “distinctly longer in-vitro duration of action”. The “Inhibition … in %” value turned out to be 99% in experiment [2] (time 30 min, bradykinin); 99% in experiment [2] (time 60 min); 95% in experiment [2] (time 210 min); 92% in experiment [2] (time 240 min); 87% in experiment [2] (time 270 min); 78% in experiment [2] (time 300 min). Moreover, the “Inhibition … in %” value is given as 71% in experiment [2] (time 330 min) and 68% in experiment [2] (time 360 min (6 h)).

Regarding `Cc1ccc2cccc(OCc3c(Cl)ccc(N(C)C(=O)CNC(=O)OCc4ccc(OC(F)(F)F)cc4)c3Cl)c2n1` [Example 22], on bradykinin B2 receptor, the Ki was determined as 10 nM and the IC50 came to 95 nM.

`Cc1ccc2cccc(OCc3c(Cl)ccc(N(C)C(=O)CNC(=S)Nc4cccc(C(F)(F)F)c4)c3Cl)c2n1` [Example 29, 8-[3-N-(3-Trifluoromethylphenylthioureidoacetyl-N-methylamino)-2,6-dichlorobenzyloxy]-2-methylquinoline]: on bradykinin B2 receptor, the Ki was found to be 5.1 nM and the IC50 was determined as 38 nM.

`Cc1ccc2cccc(OCc3c(Cl)ccc(N(C)C(=O)CNC(=O)Cc4ccc(C(F)(F)F)cc4)c3Cl)c2n1` [Example 8]: at bradykinin B2 receptor, the Ki amounted to 3.4 nM and the half-inhibitory concentration (IC50) amounted to 28 nM.

`COc1cccc(/C=C/C(=O)NCC(=O)N(C)c2ccc(Cl)c(COc3cccc4ccc(C)nc34)c2Cl)c1` [Example Y]: the inhibition at 10 µM in experiment [2] was 96%. For the same compound, the “inhibition after 4 h (in words)” value in experiment [2] is given as “no longer show any inhibition”. The “Inhibition … in %” value in experiment [2] (time 30 min, bradykinin) worked out at 97%; in experiment [2] (time 180 min), 84%; in experiment [2] (time 210 min), 59%; in experiment [2] (time 240 min), 31%; in experiment [2] (time 270 min) it was 3%.

For the origin of these results see patent US5859025A, “Fluoroalkyl- and fluoroalkoxy-substituted heterocyclic bradykinin antagonists, process for their preparation, and their use” (Hoechst Aktiengesellschaft, priority 1996, dated 1999).
